# From patent US5789383A, “Bradykinin antagonists for the prophylaxis or treatment of virus diseases” (Hoechst Aktiengesellschaft, priority 1993, dated 1998)
# Tested on: HSV-1
# Experiment: HOE 140 in combination with acyclovir on HSV-1 skin lesions in hairless mice, Experiment 24/94
# Assay type: in vivo
# Conditions: acyclovir 0.05% orally day 3-7, no HOE 140
# Experimental: Investigation of the Action of HOE 140 on Skin Lesions Caused by HSV-1 in Hairless Mice in Combination with Acyclovir
# HOE 140 was administered twice daily either topically as a 2% strength cream in a neutral base or subcutaneously with 2 mg/kg per dosage. Acyclovir was administered as a 0.05% strength solution in the drinking water.
# Administration of acyclovir day 3-7
# Administration of HOE 140 day 3-7 or 0-7
compound,measurement,setting,value
"Nc1nc2c(ncn2COCCO)c(=O)[nH]1 [Acyclovir, acyclovir]",Average survival time,,7.3 ± 1.2 days
same,Survivors/group size,chi^2 test not significant,2/8
same,Animals with zoster formation,group size 8,7
